Measured values reported in patent US20210015134A1, “CONSUMABLES” (Givaudan S.A., priority 2006, published 2021).

What was measured:
Assay type in all cases: in vivo
[1] = system: sweet sensitive panelists; test: Paired comparison of sweetness enhancers in water versus sucrose (Example 4, modified)
Protocol: Paired Comparisons of Sweetness Enhancers and Mixtures Thereof in Water and 7% Sucrose
Samples of sweetness enhancers were prepared in water or 7% sucrose. One, two or three sweetness enhancers were used in a sample. All samples were presented to panelists at ambient temperature. The sensory evaluation was conducted using a paired comparison method. […] Samples were paired randomly and presented in unidentifiable pairs of two (left and right) to the panelists in random order. The sample on the left was tasted first, followed by rinsing the mouth with water, then tasting the sample on the right. Once completing the sequence, each panelist ranked the pair of samples for sweetness then evaluated samples with respect to one another with the following descriptors (in ascending order): […]

[2] = system: sweet sensitive panelists; test: Ranking test, sweetness isointensity of enhancer in sweetener solution (Example 3a)
Protocol: Ranking Tests to Determine the Sweetness Isointensity of Sweetness Enhancers to Sucrose Solutions
For comparative ranking, samples of 0.5%, 1%, 1.5%, 7%, 8%, 9%, 10% and 11% sucrose solutions were prepared.
3a) Sweetness Isointensity of Sweetness Enhancer in Sucrose Solutions
The sensory evaluation was conducted using a ranking method. Samples at ambient temperature were randomly presented in 15 ml blind aliquots (unidentifiable by panelists). Panels consisted of 10 sweet sensitive subjects and samples were presented in 4 replications over 2 sessions. After tasting each sample, the mouth was rinsed thoroughly with water at ambient temperature prior to tasting the next sample. Panelists were presented with 7%, 8%, 9%, 10%, 11% sucrose samples and a sixth sample of 7% sucrose with a sweetness enhancer in a concentration near its sweetness detection threshold. They were asked to rank the samples from low to high with respect to perceived sweet taste. R-indices were calculated for 7% sucrose with the sweetness enhancer versus 7%, 8%, 9%, 10% or 11% sucrose.

[3] = system: sweet sensitive panelists; test: Comparative sensory evaluation of sweetness enhancers in sweetener solution or water (Example 1)
Protocol: Comparative sensory evaluation of sweetness enhancers in 2 or 7% sucrose
The test samples contained the potential sweetness enhancers in 0% sucrose (water), 2% sucrose, or 7% sucrose, and control samples of 0%, 2% and 7% sucrose without any additive. The sensory evaluations were conducted as follows. All samples were presented at ambient temperature in 15 ml aliquots to panels consisting of 5-9 sweet sensitive subjects of varying sweet sensitivity. After tasting each sample, the mouth was rinsed thoroughly with water at ambient temperature prior to tasting the next sample. The sucrose positive control (2% or 7%) was presented first and served as the sweetness reference to which all sweetness enhancer/sucrose combinations were directly compared.
One tasting sequence included tasting the sucrose control first, rinsing with water, tasting the sweetness enhancer/sucrose sample, rinsing with water followed by tasting the sucrose control again. Once the sequence was completed, each panelist chose the sample which was sweeter and evaluated the sweetness of each sample relative to one another.
In a second tasting sequence, this same procedure was followed for the water negative control versus the sweetness enhancer/water samples to determine the sweet taste due to the sweetness enhancer itself at each tested concentration.
Panelists evaluated the sweetness of the sweetness enhancer in water for each concentration. For their evaluation, panelists were allowed to compare any perceived sweetness of the sweetness enhancer to the 2% or 7% sucrose control to determine the relative intensity of sweetness. Mild sweet taste corresponds to the taste of 2% sucrose, strong sweet taste corresponds to the taste of 7% sucrose.
Alternatively to sucrose, the evaluation may be performed with another sweetener, for example, high fructose (55%) corn syrup (HFCS, containing 55% fructose and 45% glucose), erythritol, sucralose, aspartame, or acesulfame potassium (AceK).

[4] = system: sweet sensitive panelists; test: Ranking test, near threshold sweetness isointensity of enhancer in water (Example 3b)
Protocol: The sensory evaluation was conducted using a ranking method. Samples at ambient temperature were randomly presented in 15 ml blind aliquots (unidentifiable by panelists). […] After tasting each sample, the mouth was rinsed thoroughly with water at ambient temperature prior to tasting the next sample. […] They were asked to rank the samples from low to high with respect to perceived sweet taste.

sweet sensitive subjects = test: Sweetness quality evaluation (time of onset, localization, duration)
Protocol: (§1) Rebaudioside A (99%+, purified from plant extract, Sweet Aloha Farms, LLC) (1 ppm, 10 ppm, 20 ppm, 30 ppm) in 2% sucrose samples was evaluated for the qualities of the sweetness of the samples (time of onset, localization, duration). The sensory evaluations were conducted as follows. All samples were presented at ambient temperature in 15 ml aliquots and presented blindly to sweet sensitive subjects of varying sweet sensitivity. Subjects tasted the samples and were asked to evaluate the quality of sweetness. Sucrose solutions (2% and 7%) were presented as references.
Rebaudioside A (99%+, purified from plant extract, Sweet Aloha Farms, LLC) (1 ppm, 10 ppm, 20 ppm, 30 ppm) in 7% sucrose samples were evaluated for the qualities of the sweetness of the samples (time of onset, localization, duration). The sensory evaluations were conducted as follows. All samples were presented at ambient temperature in 15 ml aliquots and presented blindly to sweet sensitive subjects of varying sweet sensitivity. Subjects tasted the samples and were asked to evaluate the quality of the sweetness. Sucrose solutions (2% and 7%) were presented as references to evaluate the sweetness of the rebaudioside A samples.
as §1, with “Stevioside extract (95%+,” for “Rebaudioside A (99%+,”, “Apin Chemicals) (20” for “Sweet Aloha Farms, LLC) (1 ppm, 10 ppm, 20”, “30 ppm, 40 ppm, 50” for “30”, “ppm) was evaluated” for “ppm)”, “sucrose” for “sucrose samples was evaluated”, “sweetness qualities.” for “quality of sweetness.”
Stevioside (20 ppm, 30 ppm, 40 ppm, 50 ppm) was evaluated in 7% sucrose for the qualities of the sweetness of the samples (time of onset, localization, duration). The sensory evaluations were conducted as follows. All samples were presented at ambient temperature in 15 ml aliquots and presented blindly to sweet sensitive subjects of varying sweet sensitivity. Subjects tasted the samples and were asked to evaluate the sweetness qualities. Sucrose solutions (2% and 7%) were presented as references to evaluate the sweetness of the stevioside samples.

[5] = 45 ppm in water vs 0.5% sucrose
[6] = 50 ppm in water vs 0.5% sucrose
[7] = 60 ppm in water vs 1.5% sucrose

For `C[C@@H]1O[C@@H](OC2C(Oc3cc(O)c(C(=O)CCc4ccc(O)cc4)c(O)c3)OC(CO)C(O)C2O)[C@H](O)[C@H](O)[C@H]1O` (stereo in doubt) [NarDHC, -[4-[[2-O-(6-Deoxy-L-mannopyranosyl)-D-glucopyranosyl]oxy]-2,6-dihydroxyphenyl]-3-(4-hydroxyphenyl)-1-propanone], the Result of comparison ([1]; 45 ppm in water vs 0% sucrose) was “weakly sweeter”, the Result of comparison [1, 5] was “isosweet” and the Result of comparison ([1]; 45 ppm in water vs 1% sucrose) was “less sweet”. The Result of comparison [1, 6] was “notably sweeter”, the Result of comparison ([1]; 50 ppm in water vs 1% sucrose) was “less sweet” and the “isointensity to sucrose solution” value ([1]; 55 ppm in water) was 1 % sucrose. For the same compound, the Result of comparison ([1]; 55 ppm in water vs 0.5% sucrose) was “notably sweeter”, the Result of comparison ([1]; 55 ppm in water vs 1% sucrose) was “isosweet” and the Result of comparison ([1]; 60 ppm in water vs 1% sucrose) was “notably sweeter”. For the same compound, the Result of comparison [1, 7] was “significantly less sweet”, the “added sucrose sweetness intensity” value ([2]; 45 ppm in 7% sucrose) was 1 ° Brix and the “sweetness isointensity to sucrose” value ([2]; 45 ppm in 7% sucrose) was 8 % sucrose. For the same compound, the NarDHC sample sweetness ([2]; 45 ppm in 7% sucrose vs 7% sucrose) was “sweeter”, the NarDHC sample sweetness ([2]; 45 ppm in 7% sucrose vs 8% sucrose) was “isosweet” and the NarDHC sample sweetness ([2]; 45 ppm in 7% sucrose vs 9% sucrose) was “less sweet”. The NarDHC sample sweetness ([2]; 45 ppm in 7% sucrose vs 10% sucrose) was “less sweet”, the NarDHC sample sweetness ([2]; 45 ppm in 7% sucrose vs 11% sucrose) was “less sweet” and the “added sucrose sweetness intensity” value ([2]; 60 ppm in 7% sucrose) was 2 ° Brix. For the same compound, the “sweetness isointensity to sucrose” value ([2]; 60 ppm in 7% sucrose) was 9 % sucrose, the NarDHC sample sweetness ([2]; 60 ppm in 7% sucrose vs 7% sucrose) was “Sweeter” and the NarDHC sample sweetness ([2]; 60 ppm in 7% sucrose vs 8% sucrose) was “Sweeter”. For the same compound, the NarDHC sample sweetness ([2]; 60 ppm in 7% sucrose vs 9% sucrose) was “Isosweet”, the NarDHC sample sweetness ([2]; 60 ppm in 7% sucrose vs 10% sucrose) was “less sweet” and the NarDHC sample sweetness ([2]; 60 ppm in 7% sucrose vs 11% sucrose) was “less sweet”. For the same compound, the “Sensory evaluation of sweetness intensity” value ([3]; 20 ppm in 2% sucrose) was “notably sweeter than sucrose control”, the “Sensory evaluation of sweetness intensity” value ([3]; 20 ppm in water) was “barely perceived delayed sweetness vs. 2% sucrose” and the “Sensory evaluation of sweetness intensity” value ([3]; 60 ppm in 2% sucrose) was “much sweeter than sucrose control”. The “Sensory evaluation of sweetness intensity” value ([3]; 60 ppm in water) was “very weak delayed sweetness far below 2% sucrose”, the “Sensory evaluation of sweetness intensity” value ([3]; 100 ppm in 2% sucrose) was “substantially sweeter than 2% sucrose control” and the “Sensory evaluation of sweetness intensity” value ([3]; 100 ppm in water) was “mild sweetness slightly below 2% sucrose control”. The “isointensity to sucrose solution” value ([4]; 45 ppm in water) was 0.5 % sucrose, the “sample sweetness (NarDHC, 45 ppm)” value [4, 5] was “Isosweet” and the “sample sweetness (NarDHC, 45 ppm)” value ([4]; 45 ppm in water vs 1% sucrose) was “less sweet”. The “sample sweetness (NarDHC, 60 ppm)” value ([4]; 60 ppm in water vs 0.5% sucrose) was “sweeter”, the “sample sweetness (NarDHC, 60 ppm)” value ([4]; 60 ppm in water vs 1% sucrose) was “sweeter” and the “sample sweetness (NarDHC, 60 ppm)” value [4, 7] was “less sweet”.

`C=C1C[C@@]23CC[C@H]4[C@@](C)(CCC[C@@]4(C)C(=O)O[C@@H]4O[C@H](CO)[C@@H](O)[C@H](O)[C@H]4O)[C@@H]2CC[C@]1(O[C@@H]1O[C@H](CO)[C@@H](O)[C@H](O)[C@H]1O[C@@H]1O[C@H](CO)[C@@H](O)[C@H](O)[C@H]1O)C3` [Stevioside] was tested, and the “Sensory evaluation of sweetness intensity (onset, localisation, duration)” value (sweet sensitive subjects; 20 ppm in 2% sucrose) was “immediate onset, full mouth sweet, not lingering”, the “Sensory evaluation of sweetness intensity (onset, localisation, duration)” value (sweet sensitive subjects; 20 ppm in 7% sucrose) was “immediate onset, full mouth sweet, not lingering” and the “Sensory evaluation of sweetness intensity (onset, localisation, duration)” value (sweet sensitive subjects; 30 ppm in 2% sucrose) was “immediate onset, full mouth sweet, not lingering”. For the same compound, the “Sensory evaluation of sweetness intensity (onset, localisation, duration)” value (sweet sensitive subjects; 30 ppm in 7% sucrose) was “immediate onset, full mouth sweet, not lingering”, the “Sensory evaluation of sweetness intensity (onset, localisation, duration)” value (sweet sensitive subjects; 40 ppm in 2% sucrose) was “immediate onset, full mouth sweet, not lingering” and the “Sensory evaluation of sweetness intensity (onset, localisation, duration)” value (sweet sensitive subjects; 40 ppm in 7% sucrose) was “immediate onset, full mouth sweet, not lingering”. For the same compound, the Result of comparison ([1]; 20 ppm in water vs 0% sucrose) was “weakly sweeter”, the Result of comparison ([1]; 20 ppm in water vs 0.5% sucrose) was “notably less sweet” and the “isointensity to sucrose solution” value ([1]; 30 ppm in water) was 0.5 % sucrose. For the same compound, the Result of comparison ([1]; 30 ppm in water vs 0% sucrose) was “weakly sweeter”, the Result of comparison ([1]; 30 ppm in water vs 0.5% sucrose) was “isosweet” and the Result of comparison ([1]; 30 ppm in water vs 1% sucrose) was “significantly less sweet”. For the same compound, the Result of comparison ([1]; 40 ppm in water vs 0.5% sucrose) was “notably sweeter”, the Result of comparison ([1]; 40 ppm in water vs 1% sucrose) was “less sweet” and the “isointensity to sucrose solution” value ([1]; 40 ppm in water, by interpolation) was 0.75 % sucrose. The “isointensity to sucrose solution” value ([1]; 50 ppm in water) was 1 % sucrose, the Result of comparison [1, 6] was “sweeter” and the Result of comparison ([1]; 50 ppm in water vs 1% sucrose) was “isosweet”. For the same compound, the Result of comparison ([1]; 50 ppm in water vs 1.5% sucrose) was “significantly less sweet”, the Result of comparison ([1]; 60 ppm in water vs 1% sucrose) was “notably sweeter” and the Result of comparison [1, 7] was “less sweet”. The “isointensity to sucrose solution” value ([1]; 60 ppm in water, by interpolation) was 1.25 % sucrose, the “Sensory evaluation of sweetness intensity” value ([3]; 20 ppm in 2% sucrose) was “notably sweeter than sucrose control” and the “Sensory evaluation of sweetness intensity” value ([3]; 20 ppm in 7% sucrose) was “notably sweeter than sucrose control”. For the same compound, the “Sensory evaluation of sweetness intensity” value ([3]; 20 ppm in water (Example 9A)) was “barely detectable sweetness”, the “Sensory evaluation of sweetness intensity” value ([3]; 20 ppm in water (Example 9B)) was “barely detectable sweetness” and the “Sensory evaluation of sweetness intensity” value ([3]; 30 ppm in 2% sucrose) was “much sweeter than sucrose control”. For the same compound, the “Sensory evaluation of sweetness intensity” value ([3]; 30 ppm in 7% sucrose) was “notably sweeter than sucrose control”, the “Sensory evaluation of sweetness intensity” value ([3]; 30 ppm in water (Example 9A)) was “very weak, late onsetting sweetness” and the “Sensory evaluation of sweetness intensity” value ([3]; 30 ppm in water (Example 9B)) was “very weak, late onsetting sweetness”. The “Sensory evaluation of sweetness intensity” value ([3]; 40 ppm in 2% sucrose) was “much sweeter than sucrose control”, the “Sensory evaluation of sweetness intensity” value ([3]; 40 ppm in 7% sucrose) was “much sweeter than sucrose control” and the “Sensory evaluation of sweetness intensity” value ([3]; 40 ppm in water (Example 9A)) was “weak late onsetting sweetness”. The “Sensory evaluation of sweetness intensity” value ([3]; 40 ppm in water (Example 9B)) was “weak sweetness, late onsetting sweetness”, the “Sensory evaluation of sweetness intensity” value ([3]; 50 ppm in 2% sucrose) was “much sweeter than sucrose control” and the “Sensory evaluation of sweetness intensity” value ([3]; 50 ppm in 7% sucrose) was “much sweeter than sucrose control”. The “Sensory evaluation of sweetness intensity” value ([3]; 50 ppm in water (Example 9A)) was “weak sweetness, faster onset than 40 ppm,”, the “Sensory evaluation of sweetness intensity” value ([3]; 50 ppm in water (Example 9B)) was “weak sweetness, faster onset than 40 ppm,” and the “Sensory evaluation of sweetness intensity” value ([3]; 60 ppm in 2% sucrose) was “substantially sweeter than sucrose control”. The “Sensory evaluation of sweetness intensity” value ([3]; 60 ppm in 7% sucrose) was “substantially sweeter than sucrose control”, the “Sensory evaluation of sweetness intensity” value ([3]; 60 ppm in water (Example 9A)) was “weak sweetness, faster onset than 50 ppm,” and the “Sensory evaluation of sweetness intensity” value ([3]; 60 ppm in water (Example 9B)) was “weak sweetness, faster onset than 50 ppm,”.
